What was measured:
Format in all cases: functional
SK-MEL-5 = assay: Growth inhibition of human SK-MEL-5 cells assessed as cell growth at 10 uM incubated for 48 hrs by sulforhodamine B assay relative to control; conditions: SK-MEL-5, 48 h, read-out: Activity
HL-60(TB) = assay: Growth inhibition of human HL-60(TB) cells assessed as cell growth at 10 uM incubated for 48 hrs by sulforhodamine B assay relative to control; conditions: HL-60, 48 h, read-out: Activity
PC-3 = assay: Growth inhibition of human PC3 cells assessed as cell growth at 10 uM incubated for 48 hrs by sulforhodamine B assay relative to control; conditions: PC-3, 48 h, read-out: Activity
HCC 2998 = assay: Growth inhibition of human HCC2998 cells assessed as cell growth at 10 uM incubated for 48 hrs by sulforhodamine B assay relative to control; conditions: HCC 2998, 48 h, read-out: Activity
KM12 = assay: Growth inhibition of human KM12 cells assessed as cell growth at 10 uM incubated for 48 hrs by sulforhodamine B assay relative to control; conditions: KM12, 48 h, read-out: Activity
Hs-578T = assay: Growth inhibition of human Hs 578T cells assessed as cell growth at 10 uM incubated for 48 hrs by sulforhodamine B assay relative to control; conditions: read-out: Activity
SK-MEL-2 = assay: Growth inhibition of human SK-MEL-2 cells assessed as cell growth at 10 uM incubated for 48 hrs by sulforhodamine B assay relative to control; conditions: SK-MEL-2, 48 h, read-out: Activity
OVCAR-8 = assay: Growth inhibition of human OVCAR8 cells assessed as cell growth at 10 uM incubated for 48 hrs by sulforhodamine B assay relative to control; conditions: OVCAR-8, 48 h, read-out: Activity
SK-MEL-28 = assay: Growth inhibition of human SK-MEL-28 cells assessed as cell growth at 10 uM incubated for 48 hrs by sulforhodamine B assay relative to control; conditions: SK-MEL-28, 48 h, read-out: Activity
COLO 205 = assay: Growth inhibition of human COLO205 cells assessed as cell growth at 10 uM incubated for 48 hrs by sulforhodamine B assay relative to control; conditions: COLO 205, 48 h, read-out: Activity
RPMI-8226 = assay: Growth inhibition of human RPMI8226 cells assessed as cell growth at 10 uM incubated for 48 hrs by sulforhodamine B assay relative to control; conditions: RPMI-8226, 48 h, read-out: Activity
NCI-H522 = assay: Growth inhibition of human NCI-H522 cells assessed as cell growth at 10 uM incubated for 48 hrs by sulforhodamine B assay relative to control; conditions: NCI-H522, 48 h, read-out: Activity
Malme-3M = assay: Growth inhibition of human MALME-3M cells assessed as cell growth at 10 uM incubated for 48 hrs by sulforhodamine B assay relative to control; conditions: read-out: Activity
SK-OV-3 = assay: Growth inhibition of human SKOV3 cells assessed as cell growth at 10 uM incubated for 48 hrs by sulforhodamine B assay relative to control; conditions: SK-OV-3, 48 h, read-out: Activity
MOLT-4 = assay: Growth inhibition of human MOLT4 cells assessed as cell growth at 10 uM incubated for 48 hrs by sulforhodamine B assay relative to control; conditions: MOLT-4, 48 h, read-out: Activity
OVCAR-5 = assay: Growth inhibition of human OVCAR5 cells assessed as cell growth at 10 uM incubated for 48 hrs by sulforhodamine B assay relative to control; conditions: OVCAR-5, 48 h, read-out: Activity
786-0 = assay: Growth inhibition of human 786-0 cells assessed as cell growth at 10 uM incubated for 48 hrs by sulforhodamine B assay relative to control; conditions: 786-0, 48 h, read-out: Activity
UACC-62 = assay: Growth inhibition of human UACC62 cells assessed as cell growth at 10 uM incubated for 48 hrs by sulforhodamine B assay relative to control; conditions: UACC-62, 48 h, read-out: Activity
A549 = assay: Growth inhibition of human A549/ATCC cells assessed as cell growth at 10 uM incubated for 48 hrs by sulforhodamine B assay relative to control; conditions: A549, 48 h, read-out: Activity
SW-620 = assay: Growth inhibition of human SW620 cells assessed as cell growth at 10 uM incubated for 48 hrs by sulforhodamine B assay relative to control; conditions: SW-620, 48 h, read-out: Activity
EKVX = assay: Growth inhibition of human EKVX cells assessed as cell growth at 10 uM incubated for 48 hrs by sulforhodamine B assay relative to control; conditions: read-out: Activity
SR = assay: Growth inhibition of human SR cells assessed as cell growth at 10 uM incubated for 48 hrs by sulforhodamine B assay relative to control; conditions: read-out: Activity
MDA-MB-435 = assay: Growth inhibition of human MDA-MB-435 cells assessed as cell growth at 10 uM incubated for 48 hrs by sulforhodamine B assay relative to control; conditions: MDA-MB-435, 48 h, read-out: Activity
SNB-75 = assay: Growth inhibition of human SNB75 cells assessed as cell growth at 10 uM incubated for 48 hrs by sulforhodamine B assay relative to control; conditions: SNB-75, 48 h, read-out: Activity
HT-29 = assay: Growth inhibition of human HT-29 cells assessed as cell growth at 10 uM incubated for 48 hrs by sulforhodamine B assay relative to control; conditions: HT-29, 48 h, read-out: Activity
SN12C = assay: Growth inhibition of human SN12C cells assessed as cell growth at 10 uM incubated for 48 hrs by sulforhodamine B assay relative to control; conditions: read-out: Activity
DU-145 = assay: Growth inhibition of human DU145 cells assessed as cell growth at 10 uM incubated for 48 hrs by sulforhodamine B assay relative to control; conditions: DU-145, 48 h, read-out: Activity
TK-10 = assay: Growth inhibition of human TK10 cells assessed as cell growth at 10 uM incubated for 48 hrs by sulforhodamine B assay relative to control; conditions: TK-10, 48 h, read-out: Activity
M14 = assay: Growth inhibition of human M14 cells assessed as cell growth at 10 uM incubated for 48 hrs by sulforhodamine B assay relative to control; conditions: M14, 48 h, read-out: Activity
CCRF-CEM = assay: Growth inhibition of human CCRF-CEM cells assessed as cell growth at 10 uM incubated for 48 hrs by sulforhodamine B assay relative to control; conditions: read-out: Activity
NCI-H23 = assay: Growth inhibition of human NCI-H23 cells assessed as cell growth at 10 uM incubated for 48 hrs by sulforhodamine B assay relative to control; conditions: NCI-H23, 48 h, read-out: Activity
HCT-116 = assay: Growth inhibition of human HCT116 cells assessed as cell growth at 10 uM incubated for 48 hrs by sulforhodamine B assay relative to control; conditions: HCT-116, 48 h, read-out: Activity
UO-31 = assay: Growth inhibition of human UO31 cells assessed as cell growth at 10 uM incubated for 48 hrs by sulforhodamine B assay relative to control; conditions: UO-31, 48 h, read-out: Activity

CCOC(=O)c1c(C)oc2ncnc(Nc3ccc(OCc4cccc(F)c4)cc3)c12
growth at 10 µM (SK-MEL-5): 93.4%
growth at 10 µM (HL-60(TB)): 109%
growth at 10 µM (PC-3): 75%
growth at 10 µM (HCC 2998): 108%
growth at 10 µM (KM12): 92.9%
growth at 10 µM (Hs-578T): 87.7%
growth at 10 µM (SK-MEL-2): 102%
growth at 10 µM (OVCAR-8): 97.6%
growth at 10 µM (SK-MEL-28): 96.9%
growth at 10 µM (COLO 205): 84.2%
growth at 10 µM (RPMI-8226): 104%
growth at 10 µM (NCI-H522): 85%
growth at 10 µM (Malme-3M): 125%
growth at 10 µM (SK-OV-3): 104%
growth at 10 µM (MOLT-4): 107%
growth at 10 µM (OVCAR-5): 94%
growth at 10 µM (786-0): 86.1%
growth at 10 µM (UACC-62): 80.3%
growth at 10 µM (A549): 76.4%
growth at 10 µM (SW-620): 88.9%
growth at 10 µM (EKVX): 94.4%
growth at 10 µM (SR): 104%
growth at 10 µM (MDA-MB-435): 103%
growth at 10 µM (SNB-75): 119%
growth at 10 µM (HT-29): 92.7%
growth at 10 µM (SN12C): 90.3%
growth at 10 µM (DU-145): 94.9%
growth at 10 µM (TK-10): 82.7%
growth at 10 µM (M14): 97.5%
growth at 10 µM (CCRF-CEM): 91.2%
growth at 10 µM (NCI-H23): 91.8%
growth at 10 µM (HCT-116): 78.1%
growth at 10 µM (UO-31): 85%

CCOC(=O)c1c(C)oc2ncnc(Nc3ccc(OCc4ccc(Cl)c(Cl)c4)cc3)c12
growth at 10 µM (SK-MEL-5): 103%
growth at 10 µM (HL-60(TB)): 96.6%
growth at 10 µM (PC-3): 103%
growth at 10 µM (HCC 2998): 109%
growth at 10 µM (KM12): 102%
growth at 10 µM (Hs-578T): 104%
growth at 10 µM (SK-MEL-2): 103%
growth at 10 µM (OVCAR-8): 113%
growth at 10 µM (SK-MEL-28): 102%
growth at 10 µM (COLO 205): 111%
growth at 10 µM (RPMI-8226): 117%
growth at 10 µM (NCI-H522): 91%
growth at 10 µM (Malme-3M): 131%
growth at 10 µM (SK-OV-3): 98.9%
growth at 10 µM (MOLT-4): 105%
growth at 10 µM (OVCAR-5): 95%
growth at 10 µM (786-0): 94.3%
growth at 10 µM (UACC-62): 93.2%
growth at 10 µM (A549): 95.8%
growth at 10 µM (SW-620): 105%
growth at 10 µM (EKVX): 102%
growth at 10 µM (SR): 90%
growth at 10 µM (MDA-MB-435): 111%
growth at 10 µM (SNB-75): 102%
growth at 10 µM (HT-29): 99.7%
growth at 10 µM (SN12C): 93.3%
growth at 10 µM (DU-145): 108%
growth at 10 µM (TK-10): 88.5%
growth at 10 µM (M14): 101%
growth at 10 µM (CCRF-CEM): 110%
growth at 10 µM (NCI-H23): 95.8%
growth at 10 µM (HCT-116): 94.5%
growth at 10 µM (UO-31): 98.4%

Cc1cccc(Nc2ncnc3oc(C)c(C(=O)NCCN4CCOCC4)c23)c1
growth at 10 µM (SK-MEL-5): 96.9%
growth at 10 µM (HL-60(TB)): 92.4%
growth at 10 µM (PC-3): 101%
growth at 10 µM (HCC 2998): 97.1%
growth at 10 µM (KM12): 94.6%
growth at 10 µM (Hs-578T): 88.5%
growth at 10 µM (SK-MEL-2): 106%
growth at 10 µM (OVCAR-8): 109%
growth at 10 µM (SK-MEL-28): 100%
growth at 10 µM (COLO 205): 101%
growth at 10 µM (RPMI-8226): 89.5%
growth at 10 µM (NCI-H522): 89.9%
growth at 10 µM (Malme-3M): 97.2%
growth at 10 µM (SK-OV-3): 111%
growth at 10 µM (MOLT-4): 111%
growth at 10 µM (OVCAR-5): 81.8%
growth at 10 µM (786-0): 92.4%
growth at 10 µM (UACC-62): 84.6%
growth at 10 µM (A549): 102%
growth at 10 µM (SW-620): 98.9%
growth at 10 µM (EKVX): 92.6%
growth at 10 µM (SR): 126%
growth at 10 µM (MDA-MB-435): 101%
growth at 10 µM (SNB-75): 82.4%
growth at 10 µM (HT-29): 104%
growth at 10 µM (SN12C): 94.3%
growth at 10 µM (DU-145): 99.4%
growth at 10 µM (TK-10): 98.7%
growth at 10 µM (M14): 99.8%
growth at 10 µM (CCRF-CEM): 99.7%
growth at 10 µM (NCI-H23): 92.5%
growth at 10 µM (HCT-116): 117%
growth at 10 µM (UO-31): 75.6%

Reference: ChEMBL document CHEMBL4251615, “Discovery of anilino-furo[2,3-d]pyrimidine derivatives as dual inhibitors of EGFR/HER2 tyrosine kinase and their anticancer activity” (Eur J Med Chem, 2018)
